This is an account of results in PMC7938888, “Antidepressant drugs act by directly binding to TRKB neurotrophin receptors” (Cell, 2021).

Entries after “also recorded” stand apart in the source; their conditions may differ.

The test system of assay [1] is GluR1 subunit of AMPA receptors. As to the kind of experiment: Surface GluR1 ELISA in rat cortical cells. The format is cell-based. As to conditions: TRKB inhibitors. Here is the method: Briefly, the MG87.TRKB cells or primary cortical cells from rat or mouse embryos, cultivated in clear bottom 96-well plates (ViewPlate 96, Perkin Elmer), were washed with ice-cold PBS and fixed with 100μl of 4% PFA per well. […] Following washing, the samples were incubated with HRP-conjugated anti-goat or anti-rabbit IgG (1:5000 in blocking buffer) for 1h at RT. The cells were washed 4x with 200μl of PBS for 10 min each. Finally, the chemiluminescent signal generated by reaction with ECL was analyzed in a plate reader.
For orientation: In an ELISA, binding on a coated surface is turned into a signal by an enzyme label.

Assay [2] has as its target TRKB (Mus musculus, UniProt P15209). As to the kind of experiment: Cell-free ligand binding assay on immobilised TRKB from HEK293T lysates. Details: wild-type GFP-tagged full length TRKB or the GFP-tagged Y433F TRKB mutant; host or cells: HEK293T. As to conditions: for displacement of biotinylated FLX from TRKB: biotinylated FLX 1 μM. Here is the method: (§1) The cell-free assays (binding assays) were performed in white 96-well plates, based on the protocol used for western-blotting or ELISA ([Baeza-Raja et al., 2016]; [Das et al., 2015]). The plates were precoated with anti-GFP, anti-FLAG, anti-TRK or anti-TRKB antibody (1:1000) in carbonate buffer (pH 9.8), ON at 4°C. Following blocking with 3% BSA in PBS buffer (2 h at RT), 120 ug of total protein from each sample (of lysates from HEK293T cells transfected to overexpress GFP-TRKB.wt or GFP-TRKB.Y433F) were added and incubated overnight at 4°C under agitation. […] The luminescence was determined via HRP-conjugated streptavidin (1:10000, 1h, RT) activity reaction with ECL by a plate reader. The luminescence signal from blank wells (containing all the reagents but the sample lystates, substituted by the blocking buffer) was used as background. The specific signal was then calculated by subtracting the values of blank wells from the values of the samples with matched concentration of the biotinylated ligand. For Figure 2E, the precipitated TRKB.wt or Y433F was incubated with tritiated imipramine (0-30μM) and the radioactive emission of the ligand was determined by scintillation (OptiPhase Supermix cocktail: #1200-439; MicroBeta2, Perkin-Elmer). The scintillation signal from blank wells was used as background, and the specific signal was then calculated by subtracting the values of blank wells from the values of the samples with matched concentration of the radioactive ligand.

The subject of assay [3] is TRKB autophosphorylation (TRKB:pY). As to the kind of experiment: TRKB:pY ELISA in cultured cortical cells. The format is cell-based, rat. The note with it: for rescue of BDNF-induced pTRKB response under high CHOL: cholesterol 50 μM, drug 10 μM 15 min, BDNF 10 ng/ml 15 min. Here is the method: (§2) The TRKB:pY (phosphorylated TRKB), TRKB:PLC-γ1, PLC-γ1:pTRKB.Y816 interactions and were determined by ELISA, based on the general method described in literature ([Antila et al., 2014]; [Fred et al., 2019]), with minor adjustments. Briefly, white 96-well plates (OptiPlate 96F-HB, Perkin Elmer) were coated with capturing anti-TRKB or PLC-γ1 antibody (1:1000) in carbonate buffer (pH = 9.8) overnight (ON) at 4°C. Following a blocking step with 2%BSA in TBS-T (2 h, RT), samples were incubated ON at 4°C. The incubation with antibody against pTRKB.Y816, PLC-γ1 or pY (1:2000, ON, 4°C) was followed by HRP-conjugated anti-Rb IgG (1:5000, 2h, RT) or HRP-conjugated streptavidin (1:10000, 2h, RT). Finally, the chemiluminescent signal generated by the reaction with ECL was analyzed in a plate reader (Varioskan Flash, Thermo Scientific).

The test system of assay [4] is TRKB:PLC-γ1 interaction. As to the kind of experiment: TRKB:PLC-γ1 interaction ELISA in cortical cells. The format is cell-based, rat. Here is the method: as §2
Assay [5] concerns the target T1, TRKB.Y433F (Mus musculus, UniProt P15209, Y433F).
T1 construct: wild-type GFP-tagged full length TRKB or the GFP-tagged Y433F TRKB mutant; host or cells: HEK293T
As to the kind of experiment: Cell-free ligand binding assay, TRKB.Y433F mutant. As to conditions: tritiated imipramine, biotinylated R,R-HNK. Here is the method: as §1

In assay [6] the test system is surface TRKB. As to the kind of experiment: Surface TRKB ELISA in primary cortical neurons. Type of assay: cell-based, rat. Here is the method:
The surface levels of TRKB were also determined by ELISA ([Zheng et al., 2008]). Briefly, the MG87.TRKB cells or primary cortical cells from rat or mouse embryos, cultivated in clear bottom 96-well plates (ViewPlate 96, Perkin Elmer), were washed with ice-cold PBS and fixed with 100μl of 4% PFA per well. After washing with PBS and blocking with PBS containing 5% nonfat dry milk and 5% BSA, the samples were incubated with primary anti-TRKB antibody (R&D Systems, #AF1494, 1:1000 in blocking buffer) or anti-GluR1 subunit of AMPA receptors (CST, #8850, 1:2000 in blocking buffer) ON at 4°C. Following washing, the samples were incubated with HRP-conjugated anti-goat or anti-rabbit IgG (1:5000 in blocking buffer) for 1h at RT. The cells were washed 4x with 200μl of PBS for 10 min each. Finally, the chemiluminescent signal generated by reaction with ECL was analyzed in a plate reader.

In assay [7] the test system is TRKB:PLC-γ1 interaction. As to the kind of experiment: TRKB:PLC-γ1 interaction ELISA in MG87 cells expressing TRKB. Type of assay: cell-based, mouse. As to conditions: bCDX 2 mM/30 min pre-treatment. Here is the method:
The cell line NIH 3T3 (mouse fibroblasts) stably transfected to express TRKB or TRKA (MG87.TRKB or MG87.TRKA, respectively) were used for in vitro assays ([Antila et al., 2014]), N2A and HEK293T cells were used to overexpress GFP-tagged TRKB for binding assays. The cells were maintained at 5% CO2, 37°C in Dulbecco’s Modified Eagle’s Medium (DMEM, containing 10% fetal calf serum, 1% penicillin/streptomycin, 1% L-glutamine, and, in the case of MG87.TRKB cells, with […] of G418). The cell lines used in the present study were not authenticated or genotyped for sex.
as §2, with “The incubation with antibody against pTRKB.Y816, PLC-γ1 or pY (1:2000, ON, 4°C) was followed by HRP-conjugated anti-Rb IgG (1:5000, 2h, RT) or HRP-conjugated streptavidin (1:10000, 2h, RT).” left out

The target of assay [8] is GFP-tagged TRKB wild type (GFP-TRKB.wt), neurotrophic tyrosine kinase receptor 2 (UniProt P15209). As to the kind of experiment: ELISA; cell-free ligand binding assay in white 96-well plates: GFP-TRKB from 120 ug HEK293T lysate captured on antibody-coated wells (anti-GFP or anti-TRKB), washed, ligand added; read-out by HRP-streptavidin and ECL as told for biotinylated ligands; the conditions for BDNF are not told.
Chain of GFP-tagged TRKB wild type (GFP-TRKB.wt), neurotrophic tyrosine kinase receptor 2 (P15209 32-821): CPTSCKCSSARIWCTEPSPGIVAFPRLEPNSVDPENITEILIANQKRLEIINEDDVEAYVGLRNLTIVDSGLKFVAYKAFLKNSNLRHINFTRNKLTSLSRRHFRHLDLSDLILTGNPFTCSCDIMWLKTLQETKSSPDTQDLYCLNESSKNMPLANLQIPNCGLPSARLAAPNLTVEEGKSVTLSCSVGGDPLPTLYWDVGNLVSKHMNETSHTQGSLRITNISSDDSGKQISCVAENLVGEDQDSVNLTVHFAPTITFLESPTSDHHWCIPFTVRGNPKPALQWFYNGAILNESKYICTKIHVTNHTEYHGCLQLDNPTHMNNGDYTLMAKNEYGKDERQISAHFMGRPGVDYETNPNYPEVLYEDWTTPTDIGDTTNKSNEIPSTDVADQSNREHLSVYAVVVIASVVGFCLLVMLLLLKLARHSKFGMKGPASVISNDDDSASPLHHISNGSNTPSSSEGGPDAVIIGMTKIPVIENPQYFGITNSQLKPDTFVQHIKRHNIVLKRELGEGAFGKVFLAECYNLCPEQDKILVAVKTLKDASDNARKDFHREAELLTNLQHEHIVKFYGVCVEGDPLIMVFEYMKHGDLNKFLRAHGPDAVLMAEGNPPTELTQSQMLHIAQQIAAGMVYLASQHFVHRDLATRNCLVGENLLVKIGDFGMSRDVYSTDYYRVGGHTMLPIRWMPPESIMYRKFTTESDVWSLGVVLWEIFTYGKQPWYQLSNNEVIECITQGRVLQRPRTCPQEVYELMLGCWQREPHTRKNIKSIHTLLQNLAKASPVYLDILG

Assay [9] deals with GFP-tagged TRKB mutated at Y433 (GFP-TRKB.Y433F) (UniProt P15209). Described as above.
Chain of GFP-tagged TRKB mutated at Y433 (GFP-TRKB.Y433F) (P15209 32-821 Y433F): as the sequence (P15209 32-821) above, with Y402F counted along it

Chain of TRKB (P15209 32-821): as the sequence (P15209 32-821) above
T1 sequence (P15209 32-821 Y433F): as the sequence (P15209 32-821) above, with Y402F counted along it

Take `O=C(Nc1ccccc1C(=O)NC1CCCCNC1=O)c1cc2ccccc2s1` (stereo not drawn) [ANA12]: the “effect on FLX- and R,R-HNK-induced increase in surface GluR1” value in assay [1] was “prevented”. `N[C@]1(c2ccccc2Cl)CCC[C@H](O)C1=O` [S,S-HNK, 2S,6S-HNK]: the “displacement of biotinylated FLX from TRKB” value in [2] is “weak, if any, displacement”. In addition, the “displacement of bound R,R-HNK from TRKB” value in assay [2] (biotinylated R,R-HNK 1 μM) is recorded as “failed to displace”. As to `CN(C)CCCN1c2ccccc2Sc2ccc(Cl)cc21` [chlorpromazine], the “displacement of biotinylated FLX from TRKB” value in assay [2] is “weak, if any, displacement; also recorded: failed to displace”. Also, the “rescue of BDNF-induced pTRKB response under high CHOL” value (shortened to “rescue of BDNF-induced pTRKB response”) in [3] is listed as “failed to rescue”. Take `CN(C)CCOC(c1ccccc1)c1ccccc1` [diphenhydramine]: the “displacement of biotinylated FLX from TRKB” value in assay [2] is reported as “weak, if any, displacement”.

As to `CN[C@]1(c2ccccc2Cl)CCCCC1=O` [esketamine, S-ketamine], the Ki in [2] turned out to be 2860 nM.

For the compound `OCCN1CCN(CCC=C2c3ccccc3Sc3ccc(C(F)(F)F)cc32)CC1` [flupenthixol], the “rescue of BDNF-induced pTRKB response” value in assay [3] was “failed to rescue”. On to `CN(C)CCCN1c2ccccc2CCc2ccccc21` [imipramine], for which the “TRKB interaction with PLC-γ1” value in assay [4] (rat cortical cells) is recorded as “increased TRKB interaction with PLC-γ1”. In assay [5], the “affinity to TRKB.Y433F compared with wild-type TRKB” value is on record as “much lower than to the wild-type TRKB”. In addition, in assay [2], the Ki is 1030 nM. `CC(C)NCC(O)c1ccc(O)c(O)c1` (stereo not drawn) [isoproterenol]: the “displacement of biotinylated FLX from TRKB” value in [2] was “weak, if any, displacement”. For the compound `COC(=O)[C@@]1(O)C[C@H]2O[C@]1(C)n1c3ccccc3c3c4c(c5c6ccccc6n2c5c31)C(=O)NC4` [k252a], the “effect on FLX- and R,R-HNK-induced increase in surface GluR1” value in assay [1] was “prevented”. As for `O=C(NCCN1CCOCC1)c1ccc(Cl)cc1` [moclobemide], the affinity in assay [2] corresponds to a Ki of 1510 nM. For `O=c1[nH]c2ccccc2n1C1CCN(CCCC(c2ccc(F)cc2)c2ccc(F)cc2)CC1` [pimozide], the “rescue of BDNF-induced pTRKB response” value in assay [3] is listed as “failed to rescue”. Regarding `COc1ccc(C(CN(C)C)C2(O)CCCCC2)cc1` (stereo not drawn) [venlafaxine], in [2], the Ki amounted to 2080 nM and the “displacement of biotinylated FLX from TRKB” value is given as “readily displaced”. For the compound `OC[C@H]1O[C@@H]2O[C@H]3[C@H](O)[C@@H](O)[C@@H](O[C@H]4[C@H](O)[C@@H](O)[C@@H](O[C@H]5[C@H](O)[C@@H](O)[C@@H](O[C@H]6[C@H](O)[C@@H](O)[C@@H](O[C@H]7[C@H](O)[C@@H](O)[C@@H](O[C@H]8[C@H](O)[C@@H](O)[C@@H](O[C@H]1[C@H](O)[C@H]2O)O[C@@H]8CO)O[C@@H]7CO)O[C@@H]6CO)O[C@@H]5CO)O[C@@H]4CO)O[C@@H]3CO` [βCDX, beta-cyclodextrin], the “effect on fluoxetine-induced increase in TRKB surface exposure” value in [6] is recorded as “blocked”. Also, the “blockade of CHOL effect on TRKB:PLC-γ1 interaction” value in assay [7] was “blocked”. The “effect on BDNF-induced increase in TRKB-PLC-γ1 interaction” value in assay [4] (bCDX 2 mM, 30 min) is recorded as “prevents”. Besides, the “effect on antidepressant-induced TRKB:PLC-γ1 interaction” value in assay [4] (bCDX 2 mM/30 min pretreatment, FLX, imipramine, KET, R,R-HNK) is listed as “blocked”. For the same compound, the “effect on block of BDNF-induced pTRKB by high cholesterol” value in assay [3] (bCDX 30 min, cholesterol 100 μM/15 min, BDNF 10 ng/ml/15 min) is listed as “reverses the block”.

“brain-derived neurotrophic factor (BDNF), biotinylated rh-BDNF (ligand)”: the Kd in assay [8] amounted to 0.0031 nM; in [9], 0.0029 nM.

The Ki is a measure of affinity in units of concentration, obtained from inhibition or displacement. Low values mean tighter binding, high ones weaker binding. What is called Kd is a measure of binding affinity in units of concentration.
